Experimental data taken from the NIST ThermoML archive (doi:10.1016/j.tca.2013.09.023).
Numbers after ± are expanded uncertainties.

What was measured:
[1] = DTA; for Normal melting temperature: Crystal
[2] = Molar enthalpy of transition or fusion; conditions: DSC

Row | Normal melting temperature [1] [°C] | Molar enthalpy of transition or fusion ([2]; Crystal) [kcal/mol] | Triple point temperature ([1]; Crystal 2) [K] | Molar enthalpy of transition or fusion ([2]; Crystal 2) [kcal/mol] | Glass transition temperature ([1]; Glass) [°C] | SMILES
1 | 78.00 ± 2 | 6.93 ± 0.239 | – | – | – | CCCCn1cc[n+](C)c1.[Br-] [1-butyl-3-methylimidazolium bromide]
2 | 74.00 ± 2 | 4.3 ± 0.239 | 303.15 ± 2 | 0.645 ± 0.143 | – | CCCCn1cc[n+](C)c1.[Cl-] [1-butyl-3-methylimidazolium chloride]
3 | – | – | – | – | -70.00 ± 5 | CCCCn1cc[n+](C)c1.[I-] [1-butyl-3-methylimidazolium iodide]
